US20130303518A1, “Methods of Inhibiting the Catalytic Activity of a Protein Kinase and of Treating a Protein Kinase Related Disorder” (JIANGSU HANSOH PHARMACEUTICAL CO., LTD., priority 2007, published 2013)
“Also recorded” adds a separate entry of the source. Marks after values point to notes of the source that are not given here.

Assays:
HUVEC cell = test: Inhibition of cell proliferation assay (SRB) on VEGFR high expressing HUVEC cells; settings: Homo sapiens, 72 h, read-out: IC50 (VEGFR/HUVEC)
Protocol: The following in vitro assay may be used to determine the level of activity and effect of different compounds of the present invention on the proliferation inhibition (cell toxic) of endothelium growth factor receptor (VEGFR) high expressing Homo sapiens cancer cell-HUVEC cell.
Then the cells are put back to the incubator and cultured for continuous 72 hours. 72 hours later, the cell exposed to compounds and control cell are assayed for their proliferation using Sulforhodamine B (SRB) method.
HUVEC cells were grown in growth media (DMEM/F12, supplemented with 10% FBS) in 100 mm corning culture plates till confluence at 37° C., 5% CO2. • 2. HUVEC cells were washed in 100 mm plates with FBS, then the cells were harvested by trypsinization and seeded to corning 96-well cell culture plates at concentration of 50000 cells/ml, leaving 6 wells/each plate empty as background. • 3. […] The compounds stock solution was prepared, using DMSO to solve candidate compounds to a concentration of 20 mM. Then DMSO was used to dilute the stock solution to a serious concentration of tested compounds solution (namely, 2 mM, 1 mM, 0.2 mM, 20 μM, 2 μM, 0.2 μM). • 5. […] Each DMSO serial concentration compound solution was diluted by 20 times with culture medium by adding 5 μl DMSO compound solution to 95 μl culture medium, then mixed well by vortex. This promised that the DMSO concentration at that the HUVEC cell will exposed to will not surpass 0.5%. • 6. […] Each well was added 180 μl medium, then 20 μl medium solution of tested compounds prepared at step 5 was added to each well. For negative control group cell, 20 μl culture medium containing 0.5% pure DMSO was added. So, HUVEC cells were exposed to each tested compound at a serial final concentration of 100 μM, 10 μM, 5 μM, 1 μM, 0.1 μM, 0.01 μM, and 0.001 μM. • 7. The culture plates were put back to incubator, and cultured for 72 hours at 37° C., 5% CO2. • 8. 72 hours later, cultures were removed from incubator into sterile work area. • 9. The fixative (50% Trichloroacetic Acid-TCA) was prepared by adding reagent grade water to the TCA, fixing the cells by gently layering 50 μl of cold TCA solution on top of the growth medium. • 10. The plates was incubated for 1 hour at 4° C. and then rinsed with water several times to remove TCA, serum proteins, etc. Plates were air dried and stored until use. Bland background optical density was measured in wells incubated with growth medium without cells. • 11. 0.4% Sulforhodamine B solution was prepared by using 10% acetic acid solution. 50 μl sulforhodamine B solution was added to each well of 96-well plates. • 12. The cells were allowed to stain for 30 minutes. • 13. The wash solution of 10% acetic acid was prepared. At the end of the staining period, the stain was removed and the cells were rinsed quickly with 1% acetic acid. Repeat until unincorporated dye was removed. Wash times were kept to a minimum to reduce desorption of protein-bound dye. After being rinsed, the cultures were air dried. • 14. […] Then cultures were allowed to stand for 5 minutes at room temperature, and the mixing of the dye was enhanced by gentle stirring in a gyratory shaker. • 15. The absorbance was measured by spectrophotometry at a wavelength of 565 nm. The background absorbance of 96-well plates at 690 nm was measured and subtracted from the measurement at 565 nm. • 16. The inhibition rate (IR) was calculated as follows:

[1] = target: T1, recombinant human VEGF-R2 (Homo sapiens, UniProt P35968); test: VEGFR-2 kinase assay (ELISA, time-resolved fluorescence); type: biochemical; settings: recombinant human VEGF-R2, 10 μM ATP, 25° C., 30 minutes; read-out: IC50 (VEGFR-2/bio)
T1 construct: purchased Cell signaling technology #7787
T1 sequence (P35968 20-1356): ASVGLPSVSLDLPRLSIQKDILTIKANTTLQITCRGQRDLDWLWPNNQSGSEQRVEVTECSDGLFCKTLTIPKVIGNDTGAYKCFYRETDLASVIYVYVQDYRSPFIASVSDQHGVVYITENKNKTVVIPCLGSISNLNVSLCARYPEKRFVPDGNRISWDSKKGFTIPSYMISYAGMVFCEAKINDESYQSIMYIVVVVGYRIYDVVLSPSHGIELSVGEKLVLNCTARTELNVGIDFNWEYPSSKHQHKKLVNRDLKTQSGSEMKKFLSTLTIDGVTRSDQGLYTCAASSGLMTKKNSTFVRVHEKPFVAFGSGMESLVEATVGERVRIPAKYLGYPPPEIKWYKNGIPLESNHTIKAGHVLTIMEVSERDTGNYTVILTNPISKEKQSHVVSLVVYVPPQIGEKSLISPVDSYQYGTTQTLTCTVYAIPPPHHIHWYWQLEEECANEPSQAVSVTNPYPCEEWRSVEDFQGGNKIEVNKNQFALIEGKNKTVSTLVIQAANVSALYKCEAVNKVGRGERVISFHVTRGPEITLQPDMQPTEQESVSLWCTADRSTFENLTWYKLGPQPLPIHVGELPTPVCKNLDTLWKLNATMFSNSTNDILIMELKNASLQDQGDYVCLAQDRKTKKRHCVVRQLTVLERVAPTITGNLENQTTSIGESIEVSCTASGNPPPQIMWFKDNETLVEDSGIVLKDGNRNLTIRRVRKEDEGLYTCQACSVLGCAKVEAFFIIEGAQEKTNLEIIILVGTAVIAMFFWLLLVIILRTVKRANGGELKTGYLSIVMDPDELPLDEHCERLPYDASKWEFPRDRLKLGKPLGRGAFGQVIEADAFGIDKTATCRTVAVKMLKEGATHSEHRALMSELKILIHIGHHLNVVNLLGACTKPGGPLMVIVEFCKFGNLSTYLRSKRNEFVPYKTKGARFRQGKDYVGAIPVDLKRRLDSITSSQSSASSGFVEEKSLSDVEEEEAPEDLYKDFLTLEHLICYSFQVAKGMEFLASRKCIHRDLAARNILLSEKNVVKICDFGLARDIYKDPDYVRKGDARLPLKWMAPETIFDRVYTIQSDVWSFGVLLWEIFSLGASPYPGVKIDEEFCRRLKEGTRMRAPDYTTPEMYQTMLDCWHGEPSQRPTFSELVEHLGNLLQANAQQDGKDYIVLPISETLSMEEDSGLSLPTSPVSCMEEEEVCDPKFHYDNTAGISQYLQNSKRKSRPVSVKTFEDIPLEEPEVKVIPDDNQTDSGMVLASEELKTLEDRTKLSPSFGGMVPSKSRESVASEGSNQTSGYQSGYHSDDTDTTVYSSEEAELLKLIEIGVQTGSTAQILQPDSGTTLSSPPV
Protocol: This assay is used to measure the in vitro kinase activity of recombinant human VEGF-R2 in an ELISA assay.
• a. […] Stop Buffer: 50 mM EDTA, pH 8.0. • d.
The following protocol was used: • 1. The test compound was diluted with DMSO to the desired final assay concentration. […] 6 μM substrate peptide (Tyr87) was diluted with dH2O (1:1), 15 μl was added to every assay. • 3. VEGFR-2 enzyme was immediately transferred from −80° C. to ice, and the enzyme was allowed to thaw on ice. • 4. 2.2 μg VEGFR-2 enzyme was taken to the enzyme tube. • 5. […] 0.75 ml of DTT/Kinase buffer was transferred to each enzyme tube to prepare 4× reaction cocktail, and 7.5 μl 4× reaction cocktail was added to every assay. • 7. […] The reaction tube was incubated at 25° C. for 30 minutes. • 9. 30 μl/assay stop buffer (50 mM EDTA, pH 8.0) was added to stop the reaction. • 10. 25 μl of each reaction and 75 μl dH2O/well was transferred to a 96-well streptavidin coated plate, with shaking at room temperature for 60 minutes. • 11. Each well was washed three times with 200 μl PBS-T buffer. Plate was patted on paper towel to remove excess liquid. • 12. […] The reaction tube was incubated, with shaking at room temperature for 60 minutes. • 14. Washing was carried out as described above in step 11. • 15. Europium labeled anti-mouse IgG was diluted 1:500 in PBS-T buffer with 1% BSA, 100 μl diluted antibody was added to each well. • 16. The reaction tube was incubated, with shaking at room temperature for 30 minutes. • 17. Each well was washed five times with 200 μl PBS-T buffer. Plate was patted on paper towel to remove excess liquid. • 18. 100 μl/well DELFIA® Enhancement Solution was added. • 19. The reaction tube was incubated, with shaking at room temperature for 5 minutes. • 20.
The IC50 value can be derived from the IRs of compounds at different concentration gradients.

HT-29 human colon cancer = test: Therapeutic effects against xenografts of HT-29 human colon cancer in nude mice; type: in vivo
Protocol: The therapeutic effects of Example 63 against xenografts of HT-29 human colon cancer in nude mice were estimated.
The therapeutic effects of the compound of Example 63 against xenografts of HT-29 human colon cancer in nude mice were estimated.
Preparation method: the compound of Example 63 was prepared to corresponding concentration with distilled water.
Six to seven-week-old BALB/cA-nude female mice was purchased from Slaccas Experimental Animal. Certificate No.: SCXK(Shanghai) 2003˜0003. Raising Conditions: SPF level.
Nude mice were hypodermic inoculated HT-29 human colon cancer cell. After tumors grew to 100-300 mm^3, mice were randomly divided into teams (d0). The volume of tumors and weigh of the mice were measured for 2-3 times per week. The calculation formula of the volume of tumor (V) is: V=½×a×b^2, a: length of tumor, b: width of tumor.

For `CCN(CC)CCN1CCCc2[nH]c(/C=C3\C(=O)Nc4ccc(Cl)cc43)c(C)c2C1=O` [Example 2], the IC50 (HUVEC cell) was 288 nM and the IC50 [1] was 21 nM.

`CCN(CC)CCN1CCCc2[nH]c(/C=C3\C(=O)Nc4cc(NCc5ccc(F)cc5)c(F)cc43)c(C)c2C1=O` [Example 3, (Z)-5-(2-Diethylamino-ethyl)-2-[5-fluoro-6-(4-fluoro-benzylamino)-2-oxo-1,2-dihydro-indol-3-ylidenemethyl]-3-methyl-5,6,7,8-tetrahydro-1H-pyrrolo[3,2-c]azepin-4-one] was tested, and the IC50 (HUVEC cell) was 100 nM and the IC50 [1] was 280 nM.

`CCN(CC)CCN1CCCc2[nH]c(/C=C3\C(=O)Nc4c(Br)cc(F)cc43)c(C)c2C1=O` [Example 4, (Z)-2-(7-Bromo-5-fluoro-2-oxo-1,2-dihydro-indol-3-ylidenemethyl)-5-(2-diethylamino-ethyl)-3-methyl-5,6,7,8-tetrahydro-1H-pyrrolo[3,2-c]azepin-4-one] gave an IC50 (HUVEC cell) of 404 nM and an IC50 [1] of 41 nM.

`CCN(CC)CCN1CCCc2[nH]c(/C=C3\C(=O)Nc4ccc(Br)cc43)c(C)c2C1=O` [Example 5] was tested, and the IC50 (HUVEC cell) was 100 nM and the IC50 [1] was 8.5 nM.

In the case of `CCN(CC)CCN1CCCc2[nH]c(/C=C3\C(=O)Nc4cccc(-c5cccc(F)c5F)c43)c(C)c2C1=O` [Example 6, (Z)-5-(2-Diethylamino-ethyl)-2-[4-(2,3-difluoro-phenyl)-2-oxo-1,2-dihydro-indol-3-ylidenemethyl]-3-methyl-5,6,7,8-tetrahydro-1H-pyrrolo[3,2-c]azepin-4-one], the IC50 (HUVEC cell) is reported as 280 nM and the IC50 [1] is reported as 23 nM.

`CCN(CC)CCN1CCCc2[nH]c(/C=C3\C(=O)Nc4cc(NC(=O)COC)c(F)cc43)c(C)c2C1=O` [Example 7, (Z)—N-{3-[5-(2-Diethylamino-ethyl)-3-methyl-4-oxo-1,4,5,6,7,8-hexahydro-pyrrolo[3,2-c]azepin-2-ylmethylene]-5-fluoro-2-oxo-2,3-dihydro-1H-indol-6-yl}-2-methoxy-acetamide] showed an IC50 [1] of 690 nM.

`CCN(CC)CCN1CCCc2[nH]c(/C=C3\C(=O)Nc4cc(NC(=O)[C@H](C)O)c(F)cc43)c(C)c2C1=O` [Example 8, (S,Z)—N-{3-[5-(2-Diethylamino-ethyl)-3-methyl-4-oxo-1,4,5,6,7,8-hexahydro-pyrrolo[3,2-c]azepin-2-ylmethylene]-5-fluoro-2-oxo-2,3-dihydro-1H-indol-6-yl}-2-hydroxy-propionamide] showed an IC50 (HUVEC cell) of 308 nM and an IC50 [1] of 115 nM.

`CCN(CC)CCN1CCCc2[nH]c(/C=C3\C(=O)Nc4cc(NC(=O)C(C)(C)O)c(F)cc43)c(C)c2C1=O` [Example 9, (Z)—N-{3-[5-(2-Diethylamino-ethyl)-3-methyl-4-oxo-1,4,5,6,7,8-hexahydro-pyrrolo[3,2-c]azepin-2-ylmethylene]-5-fluoro-2-oxo-2,3-dihydro-1H-indol-6-yl}-2-hydroxy-2-methyl-propionamide] gave an IC50 (HUVEC cell) of 68 nM and an IC50 [1] of 490 nM.

`Cc1c(/C=C2\C(=O)Nc3ccc(Cl)cc32)[nH]c2c1C(=O)N(CCN1CCOCC1)CCC2` [Example 10] gave an IC50 (HUVEC cell) of 123 nM and an IC50 [1] of 14 nM.

Work on `Cc1c(/C=C2\C(=O)Nc3cccc(-c4cccc(F)c4F)c32)[nH]c2c1C(=O)N(CCN1CCOCC1)CCC2` [Example 12, (Z)-2-[4-(2,3-Difluoro-phenyl)-2-oxo-1,2-dihydro-indol-3-ylidenemethyl]-3-methyl-5-(2-morpholin-4-yl-ethyl)-5,6,7,8-tetrahydro-1H-pyrrolo[3,2-c]azepin-4-one] yielded an IC50 (HUVEC cell) of 300 nM and an IC50 [1] of 1 nM.

For `CCN(CC)CCN1CCCc2[nH]c(/C=C3\C(=O)Nc4cccc(Br)c43)c(C)c2C1=O` [Example 13, (Z)-2-(4-Bromo-2-oxo-1,2-dihydro-indol-3-ylidenemethyl)-5-(2-diethylamino-ethyl)-3-methyl-5,6,7,8-tetrahydro-1H-pyrrolo[3,2-c]azepin-4-one], the IC50 (HUVEC cell) was 804 nM and the IC50 [1] was 3 nM.

`CCN(CC)CCN1CCCc2[nH]c(/C=C3\C(=O)Nc4ncc(Br)cc43)c(C)c2C1=O` [Example 14] was tested, and the IC50 (HUVEC cell) was 457 nM and the IC50 [1] was 4 nM.

Compound `CCN(CC)CCN1CCCc2[nH]c(/C=C3\C(=O)Nc4cc(OC)ccc43)c(C)c2C1=O` [Example 15, (Z)-5-(2-Diethylamino-ethyl)-2-(6-methoxy-2-oxo-1,2-dihydro-indol-3-ylidenemethyl)-3-methyl-5,6,7,8-tetrahydro-1H-pyrrolo[3,2-c]azepin-4-one] has an IC50 (HUVEC cell) of 1200 nM and an IC50 [1] of 2 nM.

`CCN(CC)CCN1CCCc2[nH]c(/C=C3\C(=O)Nc4cccc(C)c43)c(C)c2C1=O` [Example 16, (Z)-5-(2-Diethylamino-ethyl)-3-methyl-2-(4-methyl-2-oxo-1,2-dihydro-indol-3-ylidenemethyl)-5,6,7,8-tetrahydro-1H-pyrrolo[3,2-c]azepin-4-one] gave an IC50 (HUVEC cell) of 210 nM and an IC50 [1] of 1.3 nM.

With `CCN(CC)CCN1CCCc2[nH]c(/C=C3\C(=O)Nc4cccc(CCO)c43)c(C)c2C1=O` [Example 17, (Z)-5-(2-Diethylamino-ethyl)-2-[4-(2-hydroxy-ethyl)-2-oxo-1,2-dihydro-indol-3-ylidenemethyl]-3-methyl-5,6,7,8-tetrahydro-1H-pyrrolo[3,2-c]azepin-4-one] the IC50 (HUVEC cell) was 129 nM and the IC50 [1] was 1 nM.

Compound `COCC(=O)Nc1cc2c(cc1F)/C(=C/c1[nH]c3c(c1C)C(=O)N(CCN1CCOCC1)CCC3)C(=O)N2` [Example 18, (Z)—N-{5-Fluoro-3-[3-methyl-5-(2-morpholin-4-yl-ethyl)-4-oxo-1,4,5,6,7,8-hexahydro-pyrrolo[3,2-c]azepin-2-ylmethylene]-2-oxo-2,3-dihydro-1H-indol-6-yl}-2-methoxy-acetamide] has an IC50 [1] of 10 nM.

In the case of `Cc1c(/C=C2\C(=O)Nc3cc(NCc4ccc(F)cc4)c(F)cc32)[nH]c2c1C(=O)N(CCN1CCOCC1)CCC2` [Example 19, (Z)-2-[5-Fluoro-6-(4-fluoro-benzylamino)-2-oxo-1,2-dihydro-indol-3-ylidenemethyl]-3-methyl-5-(2-morpholin-4-yl-ethyl)-5,6,7,8-tetrahydro-1H-pyrrolo[3,2-c]azepin-4-one], the IC50 (HUVEC cell) is reported as 146 nM and the IC50 [1] is reported as 12 nM.

Compound `Cc1c(/C=C2\C(=O)Nc3c(NC=O)cc(F)cc32)[nH]c2c1C(=O)N(CCN1CCOCC1)CCC2` [Example 20, (Z)—N-{5-Fluoro-3-[3-methyl-5-(2-morpholin-4-yl-ethyl)-4-oxo-1,4,5,6,7,8-hexahydro-pyrrolo[3,2-c]azepin-2-ylmethylene]-2-oxo-2,3-dihydro-1H-indol-7-yl}-formamide] has an IC50 [1] of 72 nM.

`Cc1c(/C=C2\C(=O)Nc3cc(NC(=O)[C@H](C)O)c(F)cc32)[nH]c2c1C(=O)N(CCN1CCOCC1)CCC2` [Example 21, (S,Z)—N-{5-Fluoro-3-[3-methyl-5-(2-morpholin-4-yl-ethyl)-4-oxo-1,4,5,6,7,8-hexahydro-pyrrolo[3,2-c]azepin-2-ylmethylene]-2-oxo-2,3-dihydro-1H-indol-6-yl}-2-hydroxy-propionamide] gave an IC50 [1] of 160 nM.

For `CCN(CC)CCN1CCCc2[nH]c(/C=C3\C(=O)Nc4ccc(F)cc43)c(C)c2C1=O` [Example 63, malate], the “T/C (%)” value (HT-29 human colon cancer; 40 mg/kg p.o d0~12, P < 0.01 vs control) was 31.5* %, the “RTV (relative tumor volume)” value (HT-29 human colon cancer; X ± SD, 40 mg/kg p.o d0~12, dn vs d0) was 0.80 ± 0.42 and the “TV (volume of tumor) dn” value (HT-29 human colon cancer; X ± SD, 40 mg/kg p.o d0~12, dn: the 13th day after the first dosage) was 300 ± 154 mm^3. For the same compound, the “tolerance of mice to the compound (in words)” value (HT-29 human colon cancer; continuous oral dosing, nude mice, malate) was “well tolerant; also recorded: well tolerant to the compound without obvious toxicity”.
